# Laboratory results reported in patent US20030119733A1, “Compositions and methods for inhibiting hepatocyte invasion by malarial sporozoites” (New York University, priority 1992, published 2003).
# Where “and” joins values, the source holds several entries; their conditions need not be identical. Identical values can stand only once. Like-named read-outs stand apart in the source and are kept apart here. Where no end group is shown, it is not given here.
# Experiments:
# [1] = test system: binding of CS27IVC to liver sections; assay: Peptide inhibition of CS27IVC binding to frozen liver sections; design: species or system rat; settings: peptide preincubation, up to 500 μg/ml
# Method: The procedure was carried out essentially as described by Dukor P. et al., Proc. Natl. Acad. Sci. USA 67:991-997, 1970 and Imai Y. et al., J. Cell. Biol. 111:1225-1232, 1990. Rats were euthanized with CO2. Small pieces of the liver, spleen, heart, brain and lung were removed, snap frozen in liquid nitrogen, embedded in Tissue Tek O.C.T. (Miles, Inc., Naperville, Ill.), and cut into 5 μm sections. Sections were dried for 30 min., fixed for 10 min. in 4% paraformaldehyde, rinsed three times with phosphate-buffered saline (PBS), and either used immediately or stored at 4° C. in 1% BSA, 0.5% Tween, PBS (BSA/TPBS). After blocking with 100 mM glycine (pH 7.2) and with BSA/TPBS, the sections were sequentially incubated at 37° C. with recombinant proteins for 1 hr, 10 μg/ml MAb 2A10 for 45 min., and rat anti-mouse immunoglobulin conjugated to fluorescein isothiocyanate (Boehringer Mannheim, Indianapolis, Ind.) for 45 min. The slides were counterstained for 10 min. with 0.3% Evans blue, rinsed extensively in PBS, and finally observed under a fluorescence microscope. For peptide inhibition experiments, the sections were first incubated with the peptide at various concentrations in BSA/TPBS for 1 hour at 37° C., washed six times with BSA/TPBS, and then stained with 2.5 μg/ml CS recombinant protein as described above. In a few experiments, the tissues were fixed for 10 min. with methanol, acetone, or 4% paraformaldehyde containing 0.5% glutaraldehyde.
# P. berghei sporozoites [2] = format: cell-based; settings: for Number of EEF (Mean ± SD): schizonts per 20 fields
# Method: Assays were conducted according to the methods described by Hollingdale, M. R. et al.. Science 213:1021-1022, 1981. and Sinden, R. E., WHO Bulletin MOS (Suppl.) 68:115-125, 1990. HepG2 cells were plated in FCS-MEM at a density of 0.5×10^6 cells/ml in 8-chamber slides (4808 Lab-tek, Naperville, Ill.) 24 hr. before each experiment. […] For antibody inhibition experiments, sporozoites were preincubated in FCS-MEM alone, or FCS-MEM containing anti-Region II IgG, or with preimmune sera IgG for 30 min. at 4° C. Sporozoites (5×10^4), in a volume of 100 μl, were added to each well. The medium was replenished after 2 hr. and changed after 18 and 28 hr. Each point was performed in quadruplicate. In experiments designed to evaluate the toxicity of the peptides and antisera, sporozoites were first incubated with the HepG2 cells for 2 hr in FCS-MEM. FCS-MEM containing the peptide at a concentration of 250 μg/ml (or the IgGs at a concentration of 700 μg/ml) was then added to the cultures, and incubation proceeded for two additional hours. As above, FCS-MEM was changed after 18 and 28 hr. All cultures were fixed with cold methanol containing 0.3% H2O2 after 48 hr. […] The number of exoerythrocytic forms in 20 fields was counted in a double-blind fashion under a 20× light microscope objective.
# The number of exoerythrocytic forms (“EEF”) of the parasite that developed in the HepG2 cells were counted two days later. […] In Table 2, “Number of EEF” represents the average number of schizonts counted per 20 fields under 20-times magnification of a light microscope in quadruplicate wells; P values were calculated by one-way analysis of variances corrected by the Bonferroni method using the commercially available computer program GraphPAD Instat, version 1.14, copyright 1990. […]
# [3] = test system: binding of CSFZ(Cys) to HepG2 cells; assay: Inhibition of CS binding to HepG2 cells by glycosaminoglycans; design: species or system human; settings: preincubated with 5 μg/ml CSFZ(Cys); FIG. 9
# Method: 10^5 HepG2 cells were deposited in 96-well Removawell tissue culture plates and allowed to grow overnight in MEM (Gibco) containing 10% FCS, 1 mM L-glutamine (Gibco), 3 mg/ml glucose (Sigma) and 1× non-essential amino acids (Gibco). The HepG2 cells were fixed with 4% paraformaldehyde in TBS (50 mM Tris-HCl, pH 7.5, 137 mM NaCl, 2 mM KCl), were washed 3 times with TBS, and were stored at 4° C. in BSA/TBS until use. CSFZ(Cys) at 5 μg/ml was incubated with increasing amounts of the presumed inhibitors at 37° C. for 15 min. Fifty μl of these mixtures were added to the cells, incubated for 1 hr at 37° C., washed 3× with TBS/0.05% Tween and then sequentially incubated with 50 μl of mAb 2A10 at a concentration of 10 μg/ml in TBS/BSA buffer for 30 min at 37° C., and 1:5000 dilution of goat anti-mouse IgG conjugated to alkaline phosphatase (Boehringer) for 30 minutes. […] After 15 minutes, the fluorescence was measured in a Fluoroskan II plate reader (ICN).
# Proteoglycans were preincubated with 5 μg/ml of CSFZ(Cys) and then were added to paraformaldehyde-fixed HepG2 cells. […] Each point represents the mean of triplicates. Percent inhibition was calculated by comparison to CSFZ(Cys) preincubated in medium alone.
# [4] = test system: heparan sulfate proteoglycans (HSPG); assay: CS/proteoglycan co-immunoprecipitation; format: binding, human; settings: for effect on co-immunoprecipitation of the CS receptor by CSFZ(Cys): 100 μg/ml added to 35SO4-labeled HepG2 cell extracts; for effect on co-immunoprecipitation of purified proteoglycans by CSFZ(Cys): purified trypsin-released HepG2 proteoglycan, FIG. 17
# Method: All extracts and supernatants were first precleared with normal rabbit serum and Staph A cells. Then 32 μg/ml of CSFZ(Cys) or 64 μg/ml of CS27IVC, Falc-2 or Falc-1 were added for 30 minutes, followed by 10.8 μg/ml mAb 2A10 for 30 minutes, and 1% Staph A cells (final concentrations). The suspensions were shaken for 1 to 5 hours at 4° C. The Staph A cells were washed 3 times with the lysis buffer A, 2 times with lysis buffer B (10 mM Tris-HCl, pH 7.2, containing 100 mM NaCl and 0.5% NP40), 1 time with 50 mM Tris-HCl, ph 7.2, and were processed in this buffer for electrophoresis under reducing and non-reducing conditions.
# Extracts of cells metabolically labeled with ^35SO4 were incubated for 30 minutes at 4° C. with 32 μg/ml of recombinant CSFZ(Cys) or 64 μg/ml Falc-1, and were immunoprecipitated with mAb 2A10 and Staph A cells. […] Immunoprecipitation with Falc-1 was negative. The SDS-PAGE patterns of the total lysate of HepG2 cells, and of the molecules co-immunoprecipitated with CSFZ(Cys) resembled the corresponding liver SDS-PAGE patterns. In kidney lysates, CSFZ(Cys) selectively immunoprecipitated a band of slightly lower molecular weight than the total kidney sulfated molecules.
# Sub-confluent HepG2 cells were incubated with various concentrations of trypsin for 5 minutes at 4° C. […] Independently of the trypsin concentration, about 80% of the released HSPG was co-immunoprecipitated by 32 μg/ml CSFZ(Cys) and 10.8 μg/ml mAb 2A10. Under the same conditions, Falc-1 was negative.
# ^35SO4-labeled trypsin-released proteoglycan (total supernatant) was precipitated by CSFZ(Cys) (32 μg/ml), Falc-2 (64 μg/ml), CS27IVC (64 μg/ml) and Falc-1 (64 μg/ml). The labeled molecules were incubated with CSFZ(Cys), CS27IVC, and Falc-2 at equivalent concentrations of Region II+, and co-immunoprecipitated with the mAb 2A10. CSFZ(Cys), lacking most of the repeat region, precipitated up to 86% of the total sulfate-labeled proteoglycans (see FIG. 14), while CS27IVC and Falc-2 precipitated only 18% and 6% of the counts, respectively. Falc-1, which lacks Region II+, was negative.
# Subconfluent sulfate-labeled HepG2 cells were incubated with 20 μg/ml trypsin for 5 minutes at 4° C., and the supernatants were loaded onto an anion exchange chromatography Pharmacia mono-Q column. These were eluted with a 0 to 2 M NaCl gradient in the presence of 7 M urea. […] Protein was not detectable in the labeled peaks. One ml fractions were collected and counted.
# [5] = test system: Vivax-2 binding to cholesterol-sulfate; assay: Inhibition of binding of Vivax-2 to cholesterol-sulfate; design: species or system P. vivax
# Method: (§1) Solid phase binding assays: Thirty μl of lipids or steroids dissolved in methanol (20-250 μg/ml) were dried into wells of microassay plates (Cat.# 3911—Falcon—Oxnard, Calif.). The plates were then blocked with 1% BSA/PBS pH 7.4 (BSA/PBS) for 30 minutes. Wells were incubated with recombinant protein (or with parasite extract) in PBS/BSA for 1 hour, washed 3 times with BSA/PBS, incubated for 1 hour with monoclonal antibodies 2F2 or 2A10 in BSA/PBS, washed 3 times, and then incubated with (10^5 cpm/well) ^125I protein A (Amersham Corp., Arlington Hts., Ill.). In the case of the P. berghei CS protein, wells were incubated with ^125I labelled mAb 3D11. Wells were washed again and the bound radioactive protein was counted in an LKB gamma-counter (model #1260, Pharmacia, Inc., Gaithersburg, Md.). For inhibition assays, the recombinant proteins were mixed with dilutions of the various polymers in BSA/PBS, the mixture was loaded into the wells of the microtiter plates, and the binding assay performed as above. See also, Roberts, et al. J. Biol. Chem. 260:9405-9411, 1985.
# P. berghei sporozoites [6] = assay: Infection assay of HepG2 cells with polymers; format: cell-based; settings: for effect on sporozoite invasion: present during invasion, 5-50 μg/ml; for invasion of hepatocytes by sporozoites in vitro: no conditions given
# Method: Infection assay: Semiconfluent monolayers of HepG2 cells were grown in 10% FCS/MEM on 8 chamber slides (#4808 Lab-tek -Naperville, Ill.) for 24 hours prior to each experiment. Sporozoites were pre-incubated in media alone or with the various polymers for 15 minutes at 4° C. 5×10^4 sporozoites, in a volume of 10 μl, were added per chamber. After 4 hours of incubation at 37° C., the medium containing the sporozoites was gently aspirated, and 0.5 ml MEM/10% FCS was added. Fresh medium was added at 18 hours and 28 hours, and then cells were fixed with methanol containing 0.3% H2O2 at 48 hours. After fixation, the wells were blocked with 10% FCS/PBS and were incubated with 10 μg/ml of mAb 2E6. Binding of the mAb was detected with a polyclonal goat anti-mouse Ig conjugated to horseradish peroxidase. […] The parasites in each well are counted under a 40× light microscope objective.
# The cells were fixed and stained with mAb 2E6, followed by goat-anti-mouse linked to horseradish peroxidase. Numbers represent schizonts counted/20 fields under 40× magnification in a light microscope.
# [7] = test system: Vivax-2 binding to sulfatide; assay: Inhibition of binding of Vivax-2 to sulfatide; design: species or system P. vivax
# Method: as §1
# [8] = biological target: T1, P.berghei CS protein binding to sulfatide (Plasmodium berghei, UniProt P06915); assay: Inhibition of binding of P.berghei CS protein to sulfatide
# T1 construct: as well as the native P. berghei CS protein; endogenous in cells; host or cells: P. berghei sporozoites (extract, 35,000 sporozoite equivalents/well)
# Method: as §1
# [9] = biological target: hepatocyte plasma membrane receptor for the circumsporozoite protein on human hepatocytes and HepG2; assay: competition: fixed HepG2 cells preincubated with peptide, washed, then CSFZ (Cys) 2.5 µg/ml (competitor); cell ELISA
# [10] = peptide 500 μg/ml present during invasion
molecule,measurement,setting,value
PGSANKPKDELDYANIEKK [Pf4],inhibition of the binding of CS27IVC to liver sections,[1],failed to inhibit
same,Number of EEF (Mean ± SD),P. berghei sporozoites [2]; peptide 250 μg/ml present during invasion,122.5 ± 13.4 and 123.7 ± 20.1 and 105.0 ± 12.5
same,Percentage of Inhibition,P. berghei sporozoites [2]; [10],0.0%
same,Number of EEF (Mean ± SD),P. berghei sporozoites [2]; [10],375.2 ± 52
chondroitin sulfate,inhibition of CS binding to HepG2 cells,[3],not
same,effect on co-immunoprecipitation of the CS receptor by CSFZ(Cys),[4],no effect
same,effect on co-immunoprecipitation of purified proteoglycans by CSFZ(Cys),[4],not
dextran,inhibition of CS binding to HepG2 cells,[3],not
same,% INHIBITION,[5]; inhibitor 10 mg/ml,0%
same,effect on sporozoite invasion,P. berghei sporozoites [6],no effect
same,% INHIBITION,[7]; inhibitor 1 mg/ml,0%
dextran-sulfate,inhibition of CS binding to HepG2 cells,[3],inhibited
same,% INHIBITION,[5]; inhibitor 1 μg/ml,12.2%
same,% INHIBITION,[5]; inhibitor 10 μg/ml,21.1%
same,% INHIBITION,[5]; inhibitor 100 μg/ml,25.6%
same,% INHIBITION,[5]; inhibitor 1 mg/ml,33%
same,% INHIBITION,[5]; inhibitor 10 mg/ml,40.5%
same,% INHIBITION,"[5]; inhibitor 10 mg/ml, listed as dextran-sulfate",less than 50%
same,% INHIBITION,[8]; inhibitor 1 μg/ml,31.2%
same,% INHIBITION,[8]; inhibitor 10 μg/ml,63%
same,% INHIBITION,[8]; inhibitor 100 μg/ml,79%
same,development of the liver stages,"P. berghei sporozoites [6]; added after 4 hours of contact, after invasion",not affected
same,invasion of hepatocytes by sporozoites in vitro,P. berghei sporozoites [6],inhibited
same,effect on sporozoite invasion,P. berghei sporozoites [6],inhibited invasion in a dose-dependent fashion
same,% INHIBITION,[7]; inhibitor 1 μg/ml,19%
same,% INHIBITION,[7]; inhibitor 10 μg/ml,70.2%
fucoidan,inhibition of CS binding to HepG2 cells,[3],inhibited
same,invasion of hepatocytes by sporozoites in vitro,P. berghei sporozoites [6],inhibited
heparan-sulfate,inhibition of CS binding to HepG2 cells,[3],inhibited
same,% INHIBITION,[5]; inhibitor 10 mg/ml,0%
same,effect on sporozoite invasion,P. berghei sporozoites [6],no effect
same,effect on binding to sulfatide,[7]; 1 mg/ml,no effect
same,% INHIBITION,[7]; inhibitor 1 mg/ml,0%
heparin,inhibition of CS binding to HepG2 cells,[3],inhibited
same,% INHIBITION,[5]; inhibitor 1 mg/ml,0%
same,% INHIBITION,[5]; inhibitor 10 mg/ml,31.2%
same,invasion of hepatocytes by sporozoites in vitro,P. berghei sporozoites [6],inhibited
same,effect on co-immunoprecipitation of the CS receptor by CSFZ(Cys),[4],prevented
same,effect on co-immunoprecipitation of purified proteoglycans by CSFZ(Cys),[4],inhibited co-immunoprecipitation
same,% INHIBITION,[7]; inhibitor 100 μg/ml,0%
CGNGIQVRIKPGSANKPKDE [Pf2],IC50,[9],75 µg/mL
